The results in this text go back to patent US20070117836A1, “NAPTHALIMIDE DERIVATIVES, METHODS FOR THEIR PRODUCTION AND PHARMACEUTICAL COMPOSITIONS THEREFROM” (priority 2004, published 2007).

By IC50 is commonly meant the concentration that gives 50% inhibition.

Read-outs that look alike come from different tables or passages of the source.

Data set [1] has as its system Six human cancer cell lines (Hs683, U-373MG, HCT-15, LoVo, A549, MCF-7). In words: MTT test of overall cell growth. Particulars: range of molar concentrations giving 50% inhibition of overall tumor cells growth, MTT, 72 hours incubation, six human cancer cell lines, read-out: IC50. It counts as cell-based. On the procedure:
In order to characterize the in vitro activity of the compounds of the invention, MTT tests were performed to indirectly and rapidly measure, i.e. within 5 days, the effect of such a compound on the overall cell growth. The test measures the number of metabolically active living cells that are able to transform the yellow product 3-(4,5-dimethylthiazol-2-yl)-2,5-diphenyl tetrazolium bromide (herein referred as MTT) into the blue product formazan dye by mitochondrial reduction. The amount of formazan obtained at the end of the experiment was measured by means of a spectrophotometer and is directly proportional to the number of living cells. Determination of the optical density enables a quantitative measurement of the effect of the investigated compounds as compared to the control condition (untreated cells) and/or to other reference compounds (in casu mitonafide and amonafide).
Six human cancer cell lines described in table 1 were used in the MTT tests. These cell lines cover four histological cancer types, being glioma, colon, lung and breast cancers. Cells were allowed to grow in 96-well micro-wells with a flat bottom with an amount of 100 μl of cell suspension per well with 1,000 to 4,000 cells/well depending on the cell type used. Each cell line was seeded in an MEM 5% serum culture medium.
The detailed experimental procedure was as follows: after a 24-hour period of incubation at 37° C., the culture medium was replaced by 100 μl of fresh medium in which the compound to be tested was dissolved at the following molar concentrations: 10^−9 M, 5.10^−9 M, 10^−8 M, 5.10^−8 M, 10^−7 M, 5.10^−7 M, 10^−6 M, 5.10^−6 M and 10^−5 M. Each experiment was repeated 6 times.
After 72 hours of incubation at 37° C. with (experimental conditions) or without (control condition) the compound to be tested, the medium was replaced by 100 μl MTT dissolved in RPMI at a concentration of 1 mg/ml. The micro-wells were subsequently incubated during 3 hours at 37° C. and centrifuged at 400 g during 10 minutes. MTT was removed and formazan crystals formed were dissolved in 100 μl DMSO. The micro-wells were shaken for 5 minutes and read on a spectrophotometer at wavelengths of 570 nm (maximum formazan absorbance) and 630 nm (background noise).
For each experimental condition, the mean optical density was calculated, as well as the percentage of remaining living cells in comparison with the control.

The subject of data set [2] is L1210 (Mouse Leukemia). The data set is described as follows: L1210 mouse leukemia model, survival. Type of data set: in vivo, mice. Particulars: median day of death treated/control. The method, then: L1210 is a syngeneic model (Mouse Leukemia) which may be used to define an optimal treatment regimen (doses and schedule) for subsequent testing of drugs in more expensive and time-consuming orthotopic human xenograft models. The model was performed with 5 mice per group, said mice being grafted at day 0 and the tested compounds being injected intraperitoneally (at the dose indicated in table 4) at days 1, 2, 3, 4, 7, 8, 9 and 10 respectively. The data shown in table 4 are T/C values which were calculated by dividing the median day of death in a treated group T by the median day of death in the control group C. T/C values of 130% or more (i.e. a prolongation of mice survival of 30% or more) indicate a significant prolongation of survival.
The experimental procedure of example 25 was repeated with compounds of examples 17, 19, 33 and 35, and the data obtained from this experiment are reported in table 7.

Data set [3] can be described thus: in vivo. As to conditions: mouse.
Description: The maximum tolerated dose (herein after MTD) is defined as the maximum amount of a given drug which can be administered acutely (i.e. in one intraperitoneal, intravenous, subcutaneous or oral single dose) to healthy animals, i.e. animals not grafted with tumors. The survival times and weights of the animals are recorded up to 14 days post injection. Five different doses of each drug are used for the determination of the MTD index. […] Each experimental group comprised 3 mice for the determination of the MTD index (expressed in mg/kg).
[4] abbreviates: Mus musculus, L1210, ip, read-out: T/C (%), dose 10 mg/kg intraperitoneally at days 1, 2, 3, 4, 7, 8, 9 and 10.
Setting [5] is: Mus musculus, L1210, ip, read-out: T/C (%), dose 20 mg/kg intraperitoneally at days 1, 2, 3, 4, 7, 8, 9 and 10.
[6] abbreviates: Mus musculus, L1210, ip, dose 10 mg/kg intraperitoneally at days 1, 2, 3, 4, 7, 8, 9 and 10, read-out: T/C (%).
Where [7] appears, read: Mus musculus, L1210, ip, dose 20 mg/kg intraperitoneally at days 1, 2, 3, 4, 7, 8, 9 and 10, read-out: T/C (%).
The mark [8] stands for this setting: Mus musculus, L1210, ip, dose 40 mg/kg intraperitoneally at days 1, 2, 3, 4, 7, 8, 9 and 10, read-out: T/C (%).
The mark [9] stands for this setting: Mus musculus, L1210, ip, dose 80 mg/kg intraperitoneally at days 1, 2, 3, 4, 7, 8, 9 and 10, read-out: T/C (%).
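Wherever MTD is given: highest single acute dose (intraperitoneal, intravenous, subcutaneous or oral) tolerated by tumor-free mice, assessed across five dose levels per drug.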

For the compound `CN(C)CCN1C(=O)c2cccc3cc(NC(=O)NC(=O)C(Cl)(Cl)Cl)cc(c23)C1=O` [Example 2, 2,2,2-trichloro-N-[({2-[2-(dimethylamino)ethyl]-1,3-dioxo-2,3-dihydro-1H-benzo[de]isoquinolin-5-yl}amino)carbonyl]acetamide], the IC50 in data set [1] lay in the range of 0.5 to 1 µM. For the same compound, the response vs control in vivo at 10 mg/kg in data set [2] (setting [4]) came to 128%. Also, in data set [2] (setting [5]), the response vs control in vivo at 20 mg/kg came out at 156%. The response vs control in vivo at 40 mg/kg in data set [2] (Mus musculus, L1210, ip, read-out: T/C (%), dose 40 mg/kg intraperitoneally at days 1, 2, 3, 4, 7, 8, 9 and 10) is 177%. In data set [2] (Mus musculus, L1210, ip, read-out: T/C (%), dose 80 mg/kg intraperitoneally at days 1, 2, 3, 4, 7, 8, 9 and 10), the response vs control in vivo at 80 mg/kg was 194%. Also, the MTD at 14 days in data set [3] was > 160 mg/kg.
For `CN(C)CCN1C(=O)c2cccc3cc(NC(=O)Nc4ccc(C#N)cc4)cc(c23)C1=O` [Example 7, N-[2-[2-(dimethylamino)ethyl]-1,3-dioxo-2,3-dihydro-1H-benzo[de]isoquinolin-5-yl]-N′-(4-cyanophenyl)urea], the IC50 in data set [1] (Homo sapiens, 72 h) fell in the range of 1 to 5 µM. Further, the response vs control in vivo at 10 mg/kg in data set [2] (setting [6]) amounted to 140%. Besides, in data set [2] (setting [7]), the response vs control in vivo at 20 mg/kg amounted to 147%. Further, in data set [2] (setting [8]), the response vs control in vivo at 40 mg/kg was 147%. Also, in data set [2] (setting [9]), the response vs control in vivo at 80 mg/kg is 213%. Moreover, the MTD at 14 days in data set [3] (intraperitoneal) was > 160 mg/kg.
On to `CN(C)CCN1C(=O)c2cccc3cc(NC(=O)Nc4ccc5c(c4)OCO5)cc(c23)C1=O` [Example 9], for which the IC50 in data set [1] (Homo sapiens, 72 h) was in the range of 5 to 10 µM. For the same compound, in data set [2] (setting [6]), the response vs control in vivo at 10 mg/kg was 113%. In addition, the response vs control in vivo at 20 mg/kg in data set [2] (setting [7]) was found to be 140%. Moreover, the response vs control in vivo at 40 mg/kg in data set [2] (setting [8]) was 160%. For the same compound, the response vs control in vivo at 80 mg/kg in data set [2] (setting [9]) stood at 187%. In addition, in data set [3] (intraperitoneal), the MTD at 14 days was > 160 mg/kg.
Take `CN(C)CCN1C(=O)c2cccc3cc(NC(=O)Nc4ccc(OC(F)(F)F)cc4)cc(c23)C1=O` [Example 10]: the IC50 in data set [1] (Homo sapiens, 72 h) lay in the range of 1 to 5 µM. The response vs control in vivo at 10 mg/kg in data set [2] (setting [6]) worked out at 117%. In addition, the response vs control in vivo at 20 mg/kg in data set [2] (setting [7]) is 156%. Besides, the response vs control in vivo at 40 mg/kg in data set [2] (setting [8]) was 139%. In addition, the response vs control in vivo at 80 mg/kg in data set [2] (setting [9]) came out at 194%. The MTD at 14 days in data set [3] (intraperitoneal) is > 160 mg/kg.
Consider `CN(C)CCN1C(=O)c2cccc3cc(N=Cc4ccc5c(c4)OCO5)cc(c23)C1=O` [Example 17, 5-{[(1Z)-1,3-benzodioxol-5-ylmethylene]amino}-N-{2-[2-(dimethylamino)ethyl]-1H-benzo[de]isoquinoline-1,3(2H)-dione], for which the IC50 in data set [1] (Homo sapiens, 72 h) was > 10 µM. Further, in data set [2] (setting [6]), the response vs control in vivo at 10 mg/kg worked out at 120%. Besides, the response vs control in vivo at 20 mg/kg in data set [2] (setting [7]) was 233%. In addition, the response vs control in vivo at 40 mg/kg in data set [2] (setting [8]) came to 207%. In addition, the response vs control in vivo at 80 mg/kg in data set [2] (setting [9]) amounted to 280%. For the same compound, in data set [3] (intraperitoneal), the MTD at 14 days turned out to be 80 mg/kg.
As for `CN(C)CCN1C(=O)c2cccc3cc(/N=C\c4cc(O)ccc4O)cc(c23)C1=O` [Example 19, 2-[2-(dimethylamino)ethyl]-5-{[(1Z)-(2,5-dihydroxyphenyl)methylene]amino}-1H-benzo[de]isoquinoline-1,3(2H)-dione], the IC50 in data set [1] (Homo sapiens, 72 h) is 10 µM. Also, the response vs control in vivo at 10 mg/kg in data set [2] (setting [6]) stood at 150%. Moreover, the response vs control in vivo at 20 mg/kg in data set [2] (setting [7]) worked out at 144%. The response vs control in vivo at 40 mg/kg in data set [2] (setting [8]) came out at 231%. Also, the response vs control in vivo at 80 mg/kg in data set [2] (setting [9]) came to 275%. Besides, the MTD at 14 days in data set [3] (intraperitoneal) came to 80 mg/kg.
For the compound `CN(C)CCN1C(=O)c2cccc3cc(NC(=O)NC(=O)C(Cl)(Cl)Cl)cc(c23)C1=O.Cl` [Example 33, 2,2,2-trichloro-N-[({2-[2-(dimethylamino)ethyl]-1,3-dioxo-2,3-dihydro-1H-benzo[de]isoquinolin-5-yl}amino)carbonyl]acetamide hydrochloride], the IC50 in data set [1] (hydrochloride) lay within 5 to 10 µM. Besides, the “T/C (%)” value in data set [2] (dose 10 mg/kg intraperitoneally at days 1, 2, 3, 4, 7, 8, 9 and 10) came to 148%; in data set [2] (dose 20 mg/kg intraperitoneally at days 1, 2, 3, 4, 7, 8, 9 and 10), 138%; in data set [2] (dose 40 mg/kg intraperitoneally at days 1, 2, 3, 4, 7, 8, 9 and 10), 186%; in data set [2] (dose 80 mg/kg intraperitoneally at days 1, 2, 3, 4, 7, 8, 9 and 10), 200%. Moreover, the MTD at 14 days in data set [3] stood at 120 mg/kg.
Turning to `CN(C)CCN1C(=O)c2cccc3cc(N=Cc4cc5c(cc4[N+](=O)[O-])OCO5)cc(c23)C1=O` [Example 35, 5-{[(1Z)-benzo([1,3]dioxol-6-nitro)-5-yl-methylene]amino}-N-(2-[2-dimethylamino)ethyl]-1H-benzo[de]isoquinolin-1,3(2H)-dione], in data set [1] (Homo sapiens, 72 h), the IC50 was > 10 µM. Besides, the response vs control in vivo at 10 mg/kg in data set [2] (setting [6]) was 213%. Further, the response vs control in vivo at 20 mg/kg in data set [2] (setting [7]) stood at 193%. Also, the response vs control in vivo at 40 mg/kg in data set [2] (setting [8]) was determined as 280%. Moreover, in data set [2] (setting [9]), the response vs control in vivo at 80 mg/kg is > 300%. The MTD at 14 days in data set [3] worked out at 80 mg/kg.
As to `CN(C)CCN1C(=O)c2cccc3cc(NCc4ccc5c(c4)OCO5)cc(c23)C1=O` [Example 36, 5-{[1,3-benzodioxol-5-ylmethyl]amino}-N-(2-[2-dimethylamino)ethyl]-1H-benzo[de]isoquinolin-1,3(2H)-dione], in data set [1] (Homo sapiens, 72 h), the 50% inhibitory concentration (IC50) fell in the range of 5 to 10 µM. Also, the MTD at 14 days in data set [3] is > 80 mg/kg.
In the same order, the values of `CN(C)CCN1C(=O)c2cccc3cc(NCc4ccccc4OC4OC(CO)C(O)C(O)C4O)cc(c23)C1=O` (centres unmarked) [Example 37] are 5 to 10 µM and > 80 mg/kg.
The matching figures for `CN(C)CCN1C(=O)c2cccc3cc(NCc4cc5c(cc4[N+](=O)[O-])OCO5)cc(c23)C1=O` [Example 40]: > 10 µM and > 80 mg/kg.
For `CN(C)CCN1C(=O)c2cccc3cc(NCc4ccc5c(c4)OCCO5)cc(c23)C1=O` [Example 42], the IC50 in data set [1] (Homo sapiens, 72 h) fell in the range of 5 to 10 µM. For the same compound, the MTD at 14 days in data set [3] is > 80 mg/kg.
`CN(C)CCN1C(=O)c2cccc3cc([N+](=O)[O-])cc(c23)C1=O` [mitonafide, reference compound]: the IC50 in data set [1] (Homo sapiens, 72 h) lay in the range of 1 to 5 µM. In addition, the response vs control in vivo at 2.5 mg/kg in data set [2] (Mus musculus, L1210, ip, read-out: T/C (%), dose 2.5 mg/kg intraperitoneally at days 1, 2, 3, 4, 7, 8, 9 and 10) was found to be 107%. Besides, in data set [2] (Mus musculus, L1210, ip, read-out: T/C (%), dose 5 mg/kg intraperitoneally at days 1, 2, 3, 4, 7, 8, 9 and 10), the response vs control in vivo at 5 mg/kg stood at 140%. For the same compound, the response vs control in vivo at 10 mg/kg in data set [2] (setting [4]) is 120%. For the same compound, the response vs control in vivo at 20 mg/kg in data set [2] (setting [5]) was 193%. The compound also showed an MTD at 14 days in data set [3] of 40 mg/kg.
